Assay results published in ChEMBL document CHEMBL1131881 (Bioorg Med Chem Lett, 1999).

Biological target: Sodium-dependent dopamine transporter (Homo sapiens, UniProt Q01959)
Assay: Binding affinity towards dopamine transporter (DAT)

Sodium-dependent dopamine transporter, sequence (Q01959 whole entry): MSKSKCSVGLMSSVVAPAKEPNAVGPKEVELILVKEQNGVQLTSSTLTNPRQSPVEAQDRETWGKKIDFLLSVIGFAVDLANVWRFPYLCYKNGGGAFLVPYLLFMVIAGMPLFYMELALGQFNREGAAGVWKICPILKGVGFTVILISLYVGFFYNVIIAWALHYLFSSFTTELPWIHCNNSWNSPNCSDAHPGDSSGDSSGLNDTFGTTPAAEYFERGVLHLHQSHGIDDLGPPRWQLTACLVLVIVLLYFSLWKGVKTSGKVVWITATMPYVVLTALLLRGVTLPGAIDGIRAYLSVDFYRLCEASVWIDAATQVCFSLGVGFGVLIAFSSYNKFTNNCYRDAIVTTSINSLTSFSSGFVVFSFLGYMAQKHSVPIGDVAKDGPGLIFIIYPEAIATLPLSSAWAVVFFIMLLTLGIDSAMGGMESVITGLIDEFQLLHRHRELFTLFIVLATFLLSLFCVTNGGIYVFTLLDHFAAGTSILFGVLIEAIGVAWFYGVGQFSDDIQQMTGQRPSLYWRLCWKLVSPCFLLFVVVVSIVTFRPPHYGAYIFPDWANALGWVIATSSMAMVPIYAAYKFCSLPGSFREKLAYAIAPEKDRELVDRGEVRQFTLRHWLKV

CCC[C@@H]1CN(C)CC[C@@H]1c1ccc(Cl)cc1
IC50: 3 nM
